Here are results for four compounds from ChEMBL document CHEMBL2074025 (AIDS, 2002).

Format in all cases: functional, cell-based
The target in data set [1] is T1, Multidrug resistance-associated protein 1 (Homo sapiens, UniProt P33527). The data set is described as follows: TP_TRANSPORTER: inhibition of Calcein efflux (Calcein: 0.05 micro;M, Amprenavir: 0.02 uM) in UMCC-1/VP cells.
The target of data set [2] is T1, Multidrug resistance-associated protein 1. Put plainly: TP_TRANSPORTER: inhibition of Calcein efflux (Calcein: 0.05 micro;M, Indinavir: 0.114 uM) in UMCC-1/VP cells.
Data set [3] has the same target. Put plainly: TP_TRANSPORTER: inhibition of Calcein efflux (Calcein: 0.05 micro;M, Lamivudine: 0.55 uM) in UMCC-1/VP cells.
Data set [4] has the same target. The data set is described as follows: TP_TRANSPORTER: inhibition of Calcein efflux (Calcein: 0.05 micro;M, Zidovudine: 0.02 uM) in UMCC-1/VP cells.

The structures appear in SMILES notation.

T1 sequence (P33527 whole entry): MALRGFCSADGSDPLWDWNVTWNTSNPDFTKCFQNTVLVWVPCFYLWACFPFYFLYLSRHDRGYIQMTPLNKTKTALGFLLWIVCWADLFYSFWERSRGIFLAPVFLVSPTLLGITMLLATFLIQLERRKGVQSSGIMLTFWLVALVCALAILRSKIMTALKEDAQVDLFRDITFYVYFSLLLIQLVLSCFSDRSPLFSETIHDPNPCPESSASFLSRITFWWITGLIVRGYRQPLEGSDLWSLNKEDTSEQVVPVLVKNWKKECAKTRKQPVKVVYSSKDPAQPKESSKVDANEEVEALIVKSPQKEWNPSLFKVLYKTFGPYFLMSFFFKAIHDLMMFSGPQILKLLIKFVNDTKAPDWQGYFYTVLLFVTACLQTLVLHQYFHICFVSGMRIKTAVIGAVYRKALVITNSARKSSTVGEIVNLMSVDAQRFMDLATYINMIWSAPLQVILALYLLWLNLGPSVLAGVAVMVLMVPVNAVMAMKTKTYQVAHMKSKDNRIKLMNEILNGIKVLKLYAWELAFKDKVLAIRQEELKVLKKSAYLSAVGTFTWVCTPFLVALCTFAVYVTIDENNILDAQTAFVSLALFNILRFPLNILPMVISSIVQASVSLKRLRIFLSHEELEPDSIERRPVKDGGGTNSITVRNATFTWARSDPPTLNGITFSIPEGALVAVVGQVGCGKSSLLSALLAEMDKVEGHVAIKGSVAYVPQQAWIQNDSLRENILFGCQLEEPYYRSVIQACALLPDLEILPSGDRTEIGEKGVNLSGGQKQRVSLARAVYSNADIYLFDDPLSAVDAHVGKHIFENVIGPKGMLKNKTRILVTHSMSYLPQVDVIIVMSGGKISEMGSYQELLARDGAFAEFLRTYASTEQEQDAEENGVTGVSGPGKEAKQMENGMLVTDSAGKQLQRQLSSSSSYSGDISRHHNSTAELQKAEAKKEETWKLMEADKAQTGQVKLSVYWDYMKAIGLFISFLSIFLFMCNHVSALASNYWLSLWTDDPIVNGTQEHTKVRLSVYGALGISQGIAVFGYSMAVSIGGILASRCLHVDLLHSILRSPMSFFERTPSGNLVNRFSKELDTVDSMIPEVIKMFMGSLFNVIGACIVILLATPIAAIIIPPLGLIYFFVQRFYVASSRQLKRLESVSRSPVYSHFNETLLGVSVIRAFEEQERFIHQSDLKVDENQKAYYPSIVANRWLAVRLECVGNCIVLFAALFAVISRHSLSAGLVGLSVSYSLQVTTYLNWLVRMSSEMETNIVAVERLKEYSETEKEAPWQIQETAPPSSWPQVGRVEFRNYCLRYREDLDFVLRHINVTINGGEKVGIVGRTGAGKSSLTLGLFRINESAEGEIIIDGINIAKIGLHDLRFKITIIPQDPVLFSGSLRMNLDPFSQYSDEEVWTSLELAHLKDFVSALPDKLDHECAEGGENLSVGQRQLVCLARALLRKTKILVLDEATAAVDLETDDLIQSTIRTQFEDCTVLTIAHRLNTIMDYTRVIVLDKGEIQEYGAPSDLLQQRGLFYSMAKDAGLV

For the compound `CC(C)CN(C[C@@H](O)[C@H](Cc1ccccc1)NC(=O)O[C@H]1CCOC1)S(=O)(=O)c1ccc(N)cc1`, the Activity result in data set [1] is “is not an inhibitor [-]”.
Take `CC(C)(C)NC(=O)[C@@H]1CN(Cc2cccnc2)CCN1C[C@@H](O)C[C@@H](Cc1ccccc1)C(=O)N[C@H]1c2ccccc2C[C@H]1O.O`: the Activity entry in data set [2] is “is not an inhibitor [-]”.
As to `Nc1ccn([C@@H]2CS[C@H](CO)O2)c(=O)n1` [LAMIVUDINE], the Activity result in data set [3] is “is not an inhibitor [-]”.
Turning to `Cc1cn([C@H]2C[C@H](N=[N+]=[N-])[C@@H](CO)O2)c(=O)[nH]c1=O` [ZIDOVUDINE], the Activity result in data set [4] is “is not an inhibitor [-]”.
